Assays:
Type in all cases: in vivo
Abutilon theophrasti [1] = assay: Herbicidal action pre-emergence (greenhouse pot trial); conditions: application rate 80 g/ha, scored after about 3 weeks
Summary of the method: (§1)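 In this test the compounds, as suspensions or emulsions in water plus 0.5% additive, are sprayed onto the soil layer covering seeds at 320 g/ha or lower. Scoring happens visually after about three weeks under good greenhouse growth conditions.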

Pharbitis purpurea [2] = assay: as above; conditions: application rate 80 g/ha
Summary of the method: as §1

Viola tricolor [3] = assay: as above; conditions: application rate 80 g/ha, scored after about 3 weeks
Summary of the method: as §1

Echinochloa crus-galli [4] = assay: as above; conditions: application rate 80 g/ha, scored after about 3 weeks
Summary of the method: as §1

Polygonum convolvulus [5] = assay: as above; conditions: application rate 80 g/ha, scored after about 3 weeks
Summary of the method: as §1

Stellaria media [6] = assay: as above; conditions: application rate 80 g/ha, scored after about 3 weeks
Summary of the method: as §1

Veronica persica [7] = assay: as above; conditions: application rate 80 g/ha
Summary of the method: as §1

Setaria viridis [8] = assay: as above; conditions: application rate 80 g/ha, scored after about 3 weeks
Summary of the method: as §1

Matricaria inodora [9] = assay: as above; conditions: application rate 80 g/ha, scored after about 3 weeks
Summary of the method: as §1

Digitaria sanguinalis [10] = assay: as above; conditions: application rate 80 g/ha
Summary of the method: as §1

Amaranthus retroflexus [11] = assay: as above; conditions: application rate 80 g/ha, scored after about 3 weeks
Summary of the method: as §1

Zea mays [12] = assay: Crop compatibility pre-emergence (greenhouse pot trial); conditions: application rate 80 g/ha, effect vs untreated controls
Summary of the method: (§2)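 Pre-emergence: seeds in pots under soil cover → WP/EC formulations applied to soil surface in water (600 L/ha) plus 0.5% additive → greenhouse, good growth conditions → ~3 wk → visual % damage vs untreated control.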

Oryza sativa [13] = assay: as above; conditions: application rate 20 g/ha, effect vs untreated controls
Summary of the method: as §2

Glycine max = assay: as above; conditions: application rate 80 g/ha, effect vs untreated controls
Summary of the method: as §2

Zea mays [14] = assay: Crop compatibility post-emergence (greenhouse pot trial); conditions: application rate 5 g/ha
Summary of the method: (§3)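 Greenhouse pot trial: sandy loam, sown seeds, treatment at one-leaf stage 2–3 wk after sowing. Spray: aqueous WP/EC preparation, 0.5% additive, 600 L/ha. Readout: visual % effect after ~3 wk relative to untreated plants.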

Oryza sativa [15] = assay: as above; conditions: application rate 20 g/ha
Summary of the method: as §3

Triticum aestivum = assay: as above; conditions: application rate 20 g/ha
Summary of the method: as §3

Abutilon theophrasti [16] = assay: Herbicidal action post-emergence (greenhouse pot trial); conditions: application rate 20 g/ha, scored visually after about 3 weeks vs untreated controls
Summary of the method: (§4)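 Foliar application post-emergence; water volume 600 L/ha, additive 0.5%, dose ≤80 g/ha. Scoring: visual, ~3 wk, relative to untreated (0–100%).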

Pharbitis purpurea [17] = assay: as above; conditions: application rate 20 g/ha
Summary of the method: as §4

Viola tricolor [18] = assay: as above; conditions: application rate 20 g/ha
Summary of the method: as §4

Echinochloa crus-galli [19] = assay: as above; conditions: application rate 20 g/ha, scored visually after about 3 weeks vs untreated controls
Summary of the method: as §4

Polygonum convolvulus [20] = assay: as above; conditions: application rate 20 g/ha, scored visually after about 3 weeks vs untreated controls
Summary of the method: as §4

Stellaria media [21] = assay: as above; conditions: application rate 20 g/ha, scored visually after about 3 weeks vs untreated controls
Summary of the method: as §4

Veronica persica [22] = assay: as above; conditions: application rate 20 g/ha
Summary of the method: as §4

Setaria viridis [23] = assay: as above; conditions: application rate 20 g/ha, scored visually after about 3 weeks vs untreated controls
Summary of the method: as §4

Matricaria inodora [24] = assay: as above; conditions: application rate 20 g/ha, scored visually after about 3 weeks vs untreated controls
Summary of the method: as §4

Digitaria sanguinalis [25] = assay: as above; conditions: application rate 20 g/ha
Summary of the method: as §4

Amaranthus retroflexus [26] = assay: as above; conditions: application rate 20 g/ha, scored visually after about 3 weeks vs untreated controls
Summary of the method: as §4

CCC(Sc1cc(-n2c(=O)cc(C(F)(F)F)n(C)c2=O)c(F)cc1Cl)C(=O)OCC1CCCO1 (stereo not shown) [I.2-71]
Abutilon theophrasti (Efficacy in %) (Abutilon theophrasti [1]): 100%
Pharbitis purpurea (Efficacy in %) (Pharbitis purpurea [2]): 100%
Viola tricolor (Efficacy in %) (Viola tricolor [3]): 100%
Echinochloa crus-galli (Efficacy in %) (Echinochloa crus-galli [4]): 100%
Polygonum convolvulus (Efficacy in %) (Polygonum convolvulus [5]): 100%
Stellaria media (Efficacy in %) (Stellaria media [6]): 100%
Veronica persica (Efficacy in %) (Veronica persica [7]): 100%
Setaria viridis (Efficacy in %) (Setaria viridis [8]): 100%
Matricaria inodora (Efficacy in %) (Matricaria inodora [9]): 100%
Digitaria sanguinalis (Efficacy in %) (Digitaria sanguinalis [10]): 100%
Amaranthus retroflexus (Efficacy in %) (Amaranthus retroflexus [11]): 100%
Zea mays (Efficacy in %) (Zea mays [12]): 10%
Oryza sativa (Efficacy in %) (Oryza sativa [13]): 0%
Glycine max (Efficacy in %) (Glycine max): 0%
Zea mays (Efficacy in %) (Zea mays [14]): 0%
Oryza sativa (Efficacy in %) (Oryza sativa [15]): 20%
Triticum aestivum (Efficacy in %) (Triticum aestivum): 20%
Abutilon theophrasti (Efficacy in %) (Abutilon theophrasti [16]): 100%
Pharbitis purpurea (Efficacy in %) (Pharbitis purpurea [17]): 100%
Viola tricolor (Efficacy in %) (Viola tricolor [18]): 100%
Echinochloa crus-galli (Efficacy in %) (Echinochloa crus-galli [19]): 80%
Polygonum convolvulus (Efficacy in %) (Polygonum convolvulus [20]): 100%
Stellaria media (Efficacy in %) (Stellaria media [21]): 100%
Veronica persica (Efficacy in %) (Veronica persica [22]): 100%
Setaria viridis (Efficacy in %) (Setaria viridis [23]): 90%
Matricaria inodora (Efficacy in %) (Matricaria inodora [24]): 100%
Digitaria sanguinalis (Efficacy in %) (Digitaria sanguinalis [25]): 100%
Amaranthus retroflexus (Efficacy in %) (Amaranthus retroflexus [26]): 100%

Reference: patent US11497212B2, “Substituted thiophenyl uracils, salts thereof and the use thereof as herbicidal agents” (Syngenta Crop Protection AG, priority 2017, dated 2022)
